Reference: PMC4092041 (Journal of cardiovascular pharmacology, 2014)

Columns and labels:
[1] = test system: angiotensin-II dependent hypertension; test: Systolic blood pressure; type: in vivo, mice; conditions: overall mixed effects analysis, all days; TPPU alone 0.2 mg/kg in drinking water; P < 0.05
LOX pathway = test: Oxylipin profiling: LOX metabolites; type: in vivo, mice; conditions: kidney; TPPU 0.2 mg/kg
Body weight gain = type: in vivo; conditions: Ang II infused mice
COX pathway = conditions: kidney; P < 0.05
[2] = test system: angiotensin-II dependent hypertension; conditions: TPPU 0.2 and 0.6 mg/kg; cited from earlier work
[3] = test system: P450 metabolites of the ARA cascade / sEH; test: Oxylipin profiling: P450 and sEH metabolites; conditions: for Increase in plasma levels of the infused EpFA vs Ang II infused animals: subcutaneous infusion, corresponding groups
[4] = Stability of EpFAs at 37°C, neutral pH; type: physicochemical
[5] = cited from earlier work
sEH = conditions: cited from earlier work

CCC(=O)N1CCC(NC(=O)Nc2ccc(OC(F)(F)F)cc2)CC1 [TPPU]
SBP (percent change from baseline) vs Ang II infused controls [1]: statistically lower SBP | Tissue levels of 15(S)-HETrE vs 19, 20-EDP treatment alone (LOX pathway): increased | Tissue levels of 15-HETE vs 19, 20-EDP treatment alone (LOX pathway): increased | Body weight gain (Body weight gain): did not alter body weight gain | Renal PGD2 vs Ang II infusion and 19, 20-EDP alone (COX pathway): decreased | Blood pressure in Ang II hypertension [2]: lower blood pressure to near baseline levels | Increase in renal DiHOMEs vs 19, 20-EDP alone or Ang II infusion ([3]; TPPU 0.2 mg/kg, P < 0.05): approximately 3 fold | Renal levels of 19, 20-EDP vs Ang II alone or 19, 20-EDP treated animals ([3]; kidney, TPPU 0.2 mg/kg): significantly increased | Summed plasma concentration of DiHDPEs vs 19, 20-EDP treatment alone ([3]; plasma, TPPU 0.2 mg/kg): decreased significantly

CCCCCC1OC1C/C=C\C/C=C\C/C=C\CCCC(=O)O (stereo not shown) [14, 15-EET, epoxyeicosatrienoic acid]
Stability [4]: quite stable | Increase in plasma levels of the infused EpFA vs Ang II infused animals ([3]; P < 0.05): approximately 2 fold

CCCCc1nc(Cl)c(CO)n1Cc1ccc(-c2ccccc2-c2nn[nH]n2)cc1 [losartan]
Adverse effect on monovalent cation balance [5]: hyperkalemia | BP in normotensive animals [5]: reduced BP

CCC1OC1C/C=C\C/C=C\C/C=C\C/C=C\C/C=C\CCC(=O)O (stereo not shown) [19, 20-EDP, epoxydocosapentaenoic acid]
Stability [4]: quite stable | Tissue levels of PGE2 vs Ang II infusion alone (COX pathway): significantly decreased by half | Rate of metabolism by sEH compared to most other fatty acid epoxides tested (sEH): more slowly metabolized | Tissue levels of 19, 20-EDP relative to tissue levels of 14, 15-EET ([3]; animals receiving these EpFAs): 6 times | Renal levels of 14, 15-EET vs Ang II infused animals ([3]; kidney, TPPU 0.2 mg/kg): significantly decreased | Increase in plasma levels of the infused EpFA vs Ang II infused animals ([3]; P < 0.05): approximately 2 fold
